Patent US20240133870A1, “COMBINED TREATMENT FOR CANCER” (Yeda Research and Development Co. Ltd., priority 2021, published 2024)

Columns and labels:
[1] = test system: pERK in G361 xenograft tumors; experiment: EVOC of xenograft tumors in various tissues, pERK immunohistochemistry; assay type: cell-based, human; conditions: co-treatment with vemurafenib 4 μM and AZD4547 2 μM
Experimental: (§1) SK-MEL-5 BRAF (V600E) melanoma cells were co-cultured with the lung-derived stromal cell line WI-38 or with the bone marrow-derived stromal cell line HS-5 with or without vemurafenib (4 μM). […] Vehicle—DMSO, EGFRi—gefitinib (0.1 μM), EGFRi/HER2i—lapatinib (10 nM), METi—crizotinib (0.1 μM), FGFRi—AZD4547 (50 nM), NFkB/TNFRi—CAPE (10 μM), TGFBRi-LY2109761 (0.5 μM), gp130i—SC144 (1 nM). P-values were calculated by two-sided t-test. *** P<0.001. Error bars represent standard error. […] P-values were calculated by two-sided t-test. *** P<0.001. Error bars represent standard error. […] Human BRAF (V600E) melanoma cell lines UACC62 or G361 were used to generate xenograft tumor models in various tissues of nude mice. When tumors reached a volume of 500-700 μmm^3, they were resected, sliced, and cultured ex-vivo in the presence of different drug combinations or DMSO control. Following 4 days of drug treatment, slices were fixed, embedded in paraffin blocks, and subjected to immunohistochemistry, using anti-pERK antibody, or to immuno-fluorescence, using anti-pFGFR1 antibody. BRAFi (vemurafenib, 4 μM), FGFRi (AZD4547, 2 μM). […]
(§2) For the ex-vivo experiments EVOCs from immunocompromised mice bearing human tumors were generated, as further described hereinbelow. For the in-vivo validation experiments, mice bearing subcutaneous tumors were used; and response was measured by evaluating tumor volume. […]

[2] = test system: pERK in UACC62 xenograft tumors; experiment: as above; assay type: cell-based, human; conditions: skin tumors; AZD4547 2 μM added to vemurafenib 4 μM
Experimental: as §1, §2

human NSCLC tumor biopsy = experiment: EVOC of NSCLC patient biopsies, viability; assay type: cell-based
Excerpt: Error bars represent standard error. […] Scale bar represents 50 μm. […] Error bars represent standard error. […] Scale bar represents 50 μm.
Scale bar represents 50 μm. […] Scale bar represents 50 μm. […] Scale bar represents 50 μm.

AZD4547
pERK downregulation [1]: sufficient to downregulate pERK in all of the different tumor locations | pERK inhibition [2]: near complete inhibition of pERK | response, cancer cell viability (human NSCLC tumor biopsy; patient refractory to osimertinib, osimertinib 4 μM with AZD4547 2 μM): improved response as compared to osimertinib alone | cancer cells viability (human NSCLC tumor biopsy; treatment-naïve patient, AZD4547 0.2 μM added to gefitinib 1.6 μM): significantly reduced cancer cells viability | cancer cell viability (human NSCLC tumor biopsy; treatment-naïve patient, in combination with osimertinib 4 μM): did not affect cancer cell viability
